Some test systems named below: CAKI-1; SK-OV-3; OVCAR-3; SF-268; BT-549; MDA-MB-435; EKVX; ACHN; NCI-H226; KM12; M14; A498; SNB-75; NCI-H23; SNB-19; HCT-15; 786-0; SK-MEL-2; HCC 2998; UACC-257.
Assay in all cases: NCI tumour cell line growth inhibition, 48 h

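Following 48 hours of exposure in 96-well plates, responses at five concentrations were used to interpolate endpoints linearly. GI50 = concentration required for 50% inhibition of growth.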 Active and inactive are the calls of the source. Rule as the data show it: active = GI50 up to about 1.1 µM and inactive = higher. Bounds are passed on as bounds.

Consider `COC(=O)Nc1nc2cc(NS(=O)(=O)c3ccc(Cl)cc3)ccc2[nH]1`, for which the GI50 was 3.78 µM (inactive) in the assay with CAKI-1; 12.2 µM (inactive) with SK-OV-3; 3.29 µM (inactive) in the assay with OVCAR-3; 10.4 µM (inactive) in the assay with SF-268; 13.4 µM (inactive) in the assay with BT-549; 2.17 µM (inactive) in the assay with MDA-MB-435. Further, the GI50 in the assay with EKVX is 5.78 µM (inactive); with ACHN it was 14.2 µM (inactive); with NCI-H226, 10.6 µM (inactive); in the assay on KM12, 3.61 µM (inactive); with M14 it was 3.77 µM (inactive); with A498 it was 3.05 µM (inactive). Also, the GI50 with SNB-75 was 2.35 µM (inactive); in the assay with NCI-H23, 9.93 µM (inactive); in the assay on SNB-19 it was 4.33 µM (inactive); with HCT-15, 6.44 µM; in the assay on 786-0 it was 17.7 µM (inactive); in the assay with SK-MEL-2, 6.37 µM (inactive).

Regarding `O=[N+]([O-])/C(C(Cl)=C(Cl)Cl)=C(/Nc1cccc2cccnc12)n1nnc2ccccc21`, the GI50 in the assay on CAKI-1 was 13.5 µM (inactive); in the assay with SK-OV-3 it was 15.9 µM (inactive); in the assay with OVCAR-3, 8.18 µM (inactive); with HCC 2998, 44.1 µM (inactive); with UACC-257, 30.3 µM (inactive); in the assay on SF-268, 16.5 µM (inactive). For the same compound, the GI50 in the assay with BT-549 is 14.2 µM (inactive); in the assay with MDA-MB-435, 15.9 µM (inactive); in the assay on EKVX, 24.4 µM (inactive); in the assay with ACHN, 19.7 µM (inactive); with NCI-H226 it was 23.2 µM (inactive); with KM12, 16 µM (inactive). The GI50 in the assay with M14 is 12.2 µM (inactive); in the assay on SNB-75 it was 19.4 µM (inactive); with NCI-H23, 15.5 µM (inactive); with SNB-19, 16.9 µM (inactive); in the assay with HCT-15 it was 10.8 µM; with 786-0 it was 14.3 µM (inactive). The GI50 with SK-MEL-2 was 15.3 µM (inactive).

For `CC[C@H](NC(=O)OC(C)(C)C)C(=O)NCP(=O)(OCc1ccc([N+](=O)[O-])cc1)OCc1ccc([N+](=O)[O-])cc1`, the GI50 with CAKI-1 is 43.2 µM (inactive); in the assay with SK-OV-3 it was 21.9 µM (inactive); in the assay with OVCAR-3 it was 11 µM (inactive); in the assay on HCC 2998 it was 36.2 µM (inactive); in the assay on UACC-257 it was 11.9 µM (inactive); with SF-268, 40.6 µM (inactive). Besides, the GI50 is 31.7 µM (inactive) in the assay with BT-549; 34.9 µM (inactive) with MDA-MB-435; 23 µM (inactive) in the assay on ACHN; 39.4 µM (inactive) in the assay on NCI-H226; 26.8 µM (inactive) with KM12; 30.9 µM (inactive) with M14. In addition, the GI50 in the assay with SNB-75 was 38.9 µM (inactive); in the assay on NCI-H23, 41.3 µM (inactive); with SNB-19, 43.1 µM (inactive); in the assay with HCT-15, 26.9 µM; in the assay with 786-0, 92.9 µM (inactive); in the assay with SK-MEL-2, 50.9 µM (inactive).

With `CN(CCC(=O)O)S(=O)(=O)c1ccccc1`, the GI50 in the assay on CAKI-1, in the assay on SK-OV-3, in the assay with OVCAR-3, in the assay on UACC-257, with SF-268 and with BT-549 was > 100 µM (inactive) each time. The GI50 in the assay with MDA-MB-435, in the assay with EKVX, with ACHN, in the assay on NCI-H226, in the assay on KM12 and in the assay with M14 was > 100 µM (inactive) each time. In addition, the GI50 in the assay on A498 is > 100 µM (inactive); with SNB-75, 80.2 µM (inactive); in the assay with NCI-H23, > 100 µM (inactive); in the assay with SNB-19 it was > 100 µM (inactive); in the assay with HCT-15, more than 100 µM; in the assay on 786-0, > 100 µM (inactive). Also, the GI50 in the assay on SK-MEL-2 is > 100 µM (inactive).

As for `CC(=O)CC1=C(OC(C)C)C2(OCCO2)C1O` (stereo not given), the GI50 in the assay with CAKI-1, in the assay on SK-OV-3, in the assay with OVCAR-3, in the assay with UACC-257, in the assay with SF-268 and in the assay with BT-549 was > 100 µM (inactive) in each case. Also, the GI50 with MDA-MB-435, with EKVX, in the assay on ACHN, in the assay with NCI-H226, in the assay with KM12 and with M14 was > 100 µM (inactive) in each case. Also, the GI50 was > 100 µM (inactive) with A498; > 100 µM (inactive) with SNB-75; > 100 µM (inactive) with NCI-H23; > 100 µM (inactive) in the assay with SNB-19; more than 100 µM in the assay with HCT-15; > 100 µM (inactive) with 786-0. Besides, in the assay with SK-MEL-2, the GI50 was > 100 µM (inactive).

For `C=C(C)CC1(O)C(=O)C(OCC)=C1OCC` (stereo not given), the GI50 in the assay on CAKI-1, with SK-OV-3, in the assay on OVCAR-3, in the assay with UACC-257, with SF-268 and with BT-549 was > 100 µM (inactive) in each case. Besides, the GI50 in the assay with MDA-MB-435, in the assay with EKVX, in the assay on ACHN, in the assay with NCI-H226, with KM12 and in the assay on M14 was > 100 µM (inactive) throughout. In addition, the GI50 is > 100 µM (inactive) in the assay with A498; 79.6 µM (inactive) in the assay with SNB-75; > 100 µM (inactive) in the assay with NCI-H23; > 100 µM (inactive) in the assay with SNB-19; more than 100 µM in the assay on HCT-15; > 100 µM (inactive) in the assay on 786-0. Besides, the GI50 in the assay with SK-MEL-2 is > 100 µM (inactive).

In the case of `OC1CC(O)c2c(Cl)sc(Cl)c21` (stereo not given), the GI50 in the assay on CAKI-1 was 31.5 µM (inactive); in the assay with SK-OV-3, 27.4 µM (inactive); in the assay with OVCAR-3, 14.8 µM (inactive); in the assay on UACC-257 it was 24.8 µM (inactive); in the assay on SF-268, > 100 µM (inactive); with BT-549, 34.6 µM (inactive). For the same compound, the GI50 in the assay on MDA-MB-435 is 32 µM (inactive); in the assay with EKVX, 5.21 µM (inactive); in the assay on ACHN, 33.2 µM (inactive); with NCI-H226 it was 26.3 µM (inactive); in the assay on KM12, 27 µM (inactive); in the assay with M14, 35.2 µM (inactive). Moreover, the GI50 in the assay with A498 was > 100 µM (inactive); with SNB-75 it was 7.67 µM (inactive); in the assay with NCI-H23, 21.2 µM (inactive); in the assay on HCT-15, 60.5 µM; in the assay with 786-0 it was 34.4 µM (inactive); with SK-MEL-2, 19.5 µM (inactive).

As to `COP(=O)(C(/C=C/c1ccccc1)OC(C)=O)[C@@H]1CCCC[C@H]1N(CC(C)(C)C)C(C)=O` (stereo not given in full), the GI50 is 28 µM (inactive) in the assay on CAKI-1; 23.1 µM (inactive) in the assay on SK-OV-3; 14.5 µM (inactive) with OVCAR-3; 12.6 µM (inactive) in the assay on HCC 2998; 14.3 µM (inactive) with UACC-257; 16.6 µM (inactive) in the assay with SF-268. Further, the GI50 was 16.8 µM (inactive) in the assay with BT-549; 14.5 µM (inactive) with MDA-MB-435; 20.7 µM (inactive) with EKVX; 16.3 µM (inactive) in the assay with ACHN; 12 µM (inactive) with NCI-H226; 26.2 µM (inactive) with KM12. The GI50 was 14.4 µM (inactive) with M14; 3.94 µM (inactive) in the assay on SNB-75; 15.8 µM (inactive) in the assay with NCI-H23; 29 µM (inactive) in the assay with SNB-19; 15.9 µM in the assay with HCT-15; 17.3 µM (inactive) in the assay with 786-0. In addition, the GI50 in the assay with SK-MEL-2 was 15.4 µM (inactive).

`COC1=C(C)C(=O)C2=C(C1=O)C1C3CC4=C(C(=O)C(OC)=C(C)C4=O)C(CNC(=O)C(C)=O)N3C(C#N)C(C2)N1C` (stereo not given): the GI50 with CAKI-1 was 0.00516 µM (active); in the assay with SK-OV-3 it was 0.0741 µM (active); with OVCAR-3, 0.00419 µM (active); in the assay with HCC 2998, 0.00629 µM (active); in the assay with UACC-257, 0.00464 µM (active); in the assay with SF-268 it was 0.014 µM (active). The GI50 in the assay on BT-549 was < 0.001 µM (active); with MDA-MB-435, 0.0016 µM (active); in the assay on EKVX, 0.104 µM (active); with ACHN, 0.0209 µM (active); in the assay with NCI-H226, 0.0177 µM (active); in the assay on KM12, 0.00789 µM (active). Besides, the GI50 in the assay on M14 was 0.00417 µM (active); in the assay on SNB-75, 0.00519 µM (active); with NCI-H23 it was 0.00385 µM (active); in the assay with SNB-19, 0.00804 µM (active); in the assay on HCT-15, 0.00603 µM; with 786-0 it was 0.00383 µM (active). Also, the GI50 in the assay on SK-MEL-2 was 0.00226 µM (active).

Take `CCCCCCCCCCCCCCCCCCNc1ccn(C2OC(COP(=O)(O)OCC3OC(n4cc(C)c(=O)[nH]c4=O)CC3N=[N+]=[N-])C(O)C2O)c(=O)n1` (stereo not given): the GI50 with CAKI-1 is 22.4 µM (inactive); in the assay on SK-OV-3, 18.9 µM (inactive); in the assay with OVCAR-3, 36.9 µM (inactive); in the assay on HCC 2998, 15.1 µM (inactive); in the assay on UACC-257, 25.4 µM (inactive); in the assay on SF-268 it was 19.2 µM (inactive). For the same compound, the GI50 with BT-549 was 19.7 µM (inactive); in the assay on MDA-MB-435, 23.8 µM (inactive); with EKVX, 26.3 µM (inactive); in the assay with ACHN it was 54 µM (inactive); in the assay on NCI-H226, 22.8 µM (inactive); in the assay with KM12, 20.3 µM (inactive). The GI50 in the assay on M14 was 20.2 µM (inactive); with SNB-75 it was 25.8 µM (inactive); with NCI-H23 it was 19.5 µM (inactive); in the assay on SNB-19, 19.2 µM (inactive); with HCT-15 it was 18.8 µM; in the assay with 786-0 it was 29.5 µM (inactive). In addition, the GI50 in the assay with SK-MEL-2 was 22.8 µM (inactive).

For `OC(c1ccc(C(F)(F)F)cc1)C(F)(F)c1nc2ccccc2o1` (stereo not given), the GI50 in the assay with CAKI-1, in the assay with SK-OV-3, with HCC 2998, in the assay on UACC-257, in the assay with SF-268 and in the assay on BT-549 was > 100 µM (inactive) throughout. Moreover, the GI50 with MDA-MB-435, in the assay on EKVX, in the assay on ACHN, in the assay on NCI-H226, with KM12 and in the assay on M14 was > 100 µM (inactive) in each case. Further, the GI50 in the assay with SNB-75 was > 100 µM (inactive); in the assay on NCI-H23 it was > 100 µM (inactive); in the assay on SNB-19, > 100 µM (inactive); in the assay with HCT-15, more than 100 µM; in the assay on 786-0 it was > 100 µM (inactive); with SK-MEL-2 it was > 100 µM (inactive).

The values above are taken from ChEMBL document CHEMBL1201862, “PubChem BioAssay data set” (2004).
